Patent US20060148799A1, “Substituted p-phenyl carbamates” (Novo Nordisk A/S, priority 2003, published 2006)

The compounds below were run against T1, Hormone-sensitive lipase (HSL) (Homo sapiens, UniProt Q05469) (assay: 3190.1: percent inhibition of hormone sensitive lipase at 10 μM (fluorochrome-labeled triacylglyceride emulsion)). Conditions: % activity relative to non-inhibited sample; 10 μM sample concentration; 30 min pre-incubation at 25° C., 120 min incubation at 37° C.; read-out: 3190.1 HSL_FL % ACTIVITY (%).
T1 construct: made in house
T1 sequence (Q05469 1-1076): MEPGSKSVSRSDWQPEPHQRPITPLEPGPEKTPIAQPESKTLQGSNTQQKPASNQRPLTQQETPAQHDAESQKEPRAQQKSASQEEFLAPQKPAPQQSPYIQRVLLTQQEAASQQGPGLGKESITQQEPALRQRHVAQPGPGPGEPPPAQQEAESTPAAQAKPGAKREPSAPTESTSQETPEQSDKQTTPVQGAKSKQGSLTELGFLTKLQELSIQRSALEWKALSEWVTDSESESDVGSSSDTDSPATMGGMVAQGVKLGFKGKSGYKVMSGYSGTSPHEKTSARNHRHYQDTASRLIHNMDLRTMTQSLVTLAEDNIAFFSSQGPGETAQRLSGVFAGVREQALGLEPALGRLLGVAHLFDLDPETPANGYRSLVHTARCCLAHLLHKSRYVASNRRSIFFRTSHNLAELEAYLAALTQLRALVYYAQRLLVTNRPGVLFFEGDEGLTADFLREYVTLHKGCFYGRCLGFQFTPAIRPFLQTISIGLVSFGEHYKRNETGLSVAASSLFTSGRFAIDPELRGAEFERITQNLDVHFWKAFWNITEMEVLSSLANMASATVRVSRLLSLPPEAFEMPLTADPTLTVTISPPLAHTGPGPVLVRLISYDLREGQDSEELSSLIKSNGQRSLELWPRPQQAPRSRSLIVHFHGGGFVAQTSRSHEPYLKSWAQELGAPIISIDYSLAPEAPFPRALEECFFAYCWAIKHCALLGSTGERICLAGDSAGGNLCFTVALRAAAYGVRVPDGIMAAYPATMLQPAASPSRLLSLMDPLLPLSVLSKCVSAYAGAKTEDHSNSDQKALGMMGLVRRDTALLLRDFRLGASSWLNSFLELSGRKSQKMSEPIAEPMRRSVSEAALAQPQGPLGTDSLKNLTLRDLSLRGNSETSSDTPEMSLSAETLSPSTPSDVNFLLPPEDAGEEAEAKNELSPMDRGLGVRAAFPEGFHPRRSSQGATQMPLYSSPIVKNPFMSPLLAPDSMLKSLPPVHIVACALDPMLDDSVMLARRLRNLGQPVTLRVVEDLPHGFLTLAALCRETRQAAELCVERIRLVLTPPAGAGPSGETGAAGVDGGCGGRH
Format: biochemical
Source text: Materials. The Hormone-sensitive lipase was provided by Dr. Cecilia Holm, from Lund University Sweden or produced and purified by Novo Nordisk (NN) using the reagents and protocols used by Dr. Holm. The substrates used are: ^3H-labeled triolein (TO) from Amersham, Buckinghamshire, U.K. cat No. TRA191; 5-20 Ci/mmol dissolved in toluene, triolein (Sigma, Cat. No. T-1740), fluorochrome-labeled triacylglyceride (cis-octadec-9-enoic acid 2-[12-(7-nitrobenzo[1,2,5]oxadiazol-4-ylamino)dodecanoyloxy]-1-cis-octadec-9-enoyloxymethyl-ethyl ester) prepared by Novo Nordisk (NN) by conventional methods, and 1,3-(di[^3H]-stearin), 2-(PEG-Biotin)glycerol prepared in collaboration with Amersham Pharmacia Biotech, UK and described in WO 01/073442. Phosphatidyl choline (PC) and phosphatidyl inositol (PI) are from Sigma (St Luis Mo. cat. Nos. P-3556 and P-5954 respectively). All other reagents are of commercial grade and obtained from various commercial sources.
3190.1: Assay for determination of percent inhibition of hormone sensitive lipase by compound at 10 μM sample concentration.
A lipid emulsion with fluorochrome-labeled triacylglyceride and phospholipid is used as substrate with a standard concentration of highly purified HSL (12 μg/mL initial concentration corresponding to 600 ng/mL final concentration). BSA is added as product acceptor. The transfer of the fluorochrome from the lipid phase to the water (BSA) phase changes the fluorescent properties of the fluorochrome. The changes can be monitored on a fluorimeter with an excitation wavelength of 450 nm and an emission wavelength of 545 nm.
Compound and HSL (20 μL compound, 10 μL enzyme and 70 μL PED-BSA buffer) is pre-incubated for 30 min at 25° C. before addition of substrate (100 μL). Amount of formed product is measured after 120 min incubation at 37° C.
Results are given as percent activity relative to a non-inhibited sample (no compound).

**Q.** `CN(C(=O)Oc1ccc(NC(=O)c2ccc(CN3CCCCC3)cc2)cc1)c1ccccc1` [Example 1, Methyl-phenyl-carbamic acid 4-(4-piperidin-1-ylmethyl-benzoylamino)-phenyl ester] was tested. Which activity at 10 µM did it give?
**A.** 4%

**Q.** `CN(C(=O)Oc1ccc(NC(=O)c2ccc(CN3CCOCC3)cc2)cc1)c1ccccc1` [Example 2, Methyl-phenyl-carbamic acid 4-(4-morpholin-4-ylmethyl-benzoylamino)-phenyl ester] was tested. Which activity at 10 µM did it give?
**A.** 4%

**Q.** How did the activity at 10 µM turn out when `CC1CCN(Cc2ccc(C(=O)Nc3ccc(OC(=O)N(C)c4ccccc4)cc3)cc2)CC1` [Example 3, Methyl-phenyl-carbamic acid 4-[4-(4-methyl-piperidin-1-ylmethyl)-benzoylamino]-phenyl ester] was run?
**A.** 2%
